Experimental data taken from patent US6403602B1 (priority 1997, dated 2002).
Counter-ions that a name gives are not always drawn. Like-named read-outs stand apart in the source and are kept apart here.

Tests used:
[1] = system: electrically stimulated guinea pig ileum; assay: tissue or blood; format: cell-based
delta receptors [2] = biological target: T1, delta receptors (Cavia porcellus, UniProt A0A286XTF2); assay: biochemical; format: binding, guinea pig
T1 construct: The brains were then homogenized in 50 mM Tris HCl, buffer pH 7.7, using a Polytron; from tissue; host or cells: guinea pig brain homogenate (membrane pellet)
T1 sequence (A0A286XTF2 1-366): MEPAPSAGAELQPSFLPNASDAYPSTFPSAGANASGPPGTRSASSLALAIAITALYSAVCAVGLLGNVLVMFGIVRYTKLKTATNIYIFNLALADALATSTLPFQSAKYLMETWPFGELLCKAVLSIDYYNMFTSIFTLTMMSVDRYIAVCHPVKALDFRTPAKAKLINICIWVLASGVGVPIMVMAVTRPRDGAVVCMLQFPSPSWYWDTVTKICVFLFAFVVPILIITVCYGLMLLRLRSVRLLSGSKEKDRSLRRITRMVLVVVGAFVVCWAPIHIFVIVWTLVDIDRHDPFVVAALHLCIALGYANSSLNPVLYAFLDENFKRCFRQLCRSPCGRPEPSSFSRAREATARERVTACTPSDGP

κ2 sites = format: binding, guinea pig
mu opioid receptors = mu opioid receptors (Cavia porcellus, UniProt A0ACM8Q262); format: binding, guinea pig; conditions: read-out: Ki μ [^3H]DAMGO
Chain of mu opioid receptors (A0ACM8Q262 1-400): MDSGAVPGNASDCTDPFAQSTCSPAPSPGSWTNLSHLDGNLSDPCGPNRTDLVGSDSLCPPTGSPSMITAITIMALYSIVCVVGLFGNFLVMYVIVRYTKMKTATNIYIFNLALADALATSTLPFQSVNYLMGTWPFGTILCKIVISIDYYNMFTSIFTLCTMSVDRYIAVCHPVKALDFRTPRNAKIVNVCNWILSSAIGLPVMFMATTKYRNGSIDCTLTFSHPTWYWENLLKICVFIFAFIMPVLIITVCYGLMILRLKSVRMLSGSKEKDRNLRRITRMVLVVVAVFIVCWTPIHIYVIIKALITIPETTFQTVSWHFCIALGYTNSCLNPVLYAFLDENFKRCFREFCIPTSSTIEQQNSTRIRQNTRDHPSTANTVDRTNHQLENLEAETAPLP

mu receptors = format: cell-based, guinea pig
kappa3 receptors = format: binding, guinea pig; conditions: read-out: Ki κ3 [^3H]NalBzoH
kappa receptors = biological target: T2, kappa receptors (Cavia porcellus, UniProt P41144); format: cell-based, guinea pig
T2 construct: The longitudinal muscle with the myenteric plexus attached was gently separated from the underlying circular muscle; from tissue; host or cells: guinea pig ileum longitudinal muscle with myenteric plexus
T2 sequence (P41144 whole entry): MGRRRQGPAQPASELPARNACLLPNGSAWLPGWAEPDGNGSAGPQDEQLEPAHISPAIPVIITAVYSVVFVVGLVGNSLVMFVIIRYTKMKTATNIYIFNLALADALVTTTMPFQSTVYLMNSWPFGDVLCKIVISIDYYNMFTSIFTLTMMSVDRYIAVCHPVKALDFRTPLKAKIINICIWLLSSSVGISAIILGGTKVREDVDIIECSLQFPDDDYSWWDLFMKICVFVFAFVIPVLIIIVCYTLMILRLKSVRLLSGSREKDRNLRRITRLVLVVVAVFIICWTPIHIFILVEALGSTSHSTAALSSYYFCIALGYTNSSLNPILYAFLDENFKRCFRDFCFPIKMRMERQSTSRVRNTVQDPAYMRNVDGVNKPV

[3] = system: electrically stimulated mouse vas deferens; assay: tissue or blood; format: cell-based
delta receptors [4] = biological target: T3, delta receptors (Mus musculus, UniProt P32300); format: cell-based
T3 construct: The vas deferens from Swiss-Webster mice (30-35 g) were prepared as described by Hughes et al; from tissue; host or cells: mouse vas deferens (Swiss-Webster)
T3 sequence (P32300 whole entry): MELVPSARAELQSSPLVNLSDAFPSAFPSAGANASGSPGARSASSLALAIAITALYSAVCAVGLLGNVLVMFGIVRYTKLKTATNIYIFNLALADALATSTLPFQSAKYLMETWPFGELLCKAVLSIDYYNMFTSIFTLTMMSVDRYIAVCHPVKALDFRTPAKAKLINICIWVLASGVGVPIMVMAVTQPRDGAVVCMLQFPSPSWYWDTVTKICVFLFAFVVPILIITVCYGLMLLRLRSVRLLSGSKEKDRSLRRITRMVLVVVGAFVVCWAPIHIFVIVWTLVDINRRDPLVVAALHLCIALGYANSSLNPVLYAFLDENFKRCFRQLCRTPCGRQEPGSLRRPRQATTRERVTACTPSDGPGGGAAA

[5] = read-out: Guinea Pig Ileum IC50
[6] = read-out: IC50 (nM), Guinea Pigs Ileum
[7] = read-out: Mouse Vas Deferens IC50
[8] = Cavia porcellus, read-out: Guinea Pig Ileum IC50 (nM)
[9] = Mus musculus, read-out: Mouse Vas Deferens IC50 (nM)
[10] = read-out: IC50 (nM), Mouse Vas Deferens

Molecule: 3-O-benzoyl-7,8-dihydromorphine-6-O-sulfate [NIDA # 20,275]
- IC50 [1, 5]: 649 ± 131 nM
- Ki (delta receptors [2]; read-out: Ki δ [^3H]Cl-DPDPE): 1600 nM
- IC50 (κ2 sites): > 10000 nM
- Ki (mu opioid receptors): 61.8 nM
- Guinea Pig Ileum DR with CTAP (mu receptors): 4.03 ± 1.51
- Guinea Pig Ileum Ke of CTAP (mu receptors): 37.64 ± 18.74

Molecule: CCC12CCN(CC3(O)CC3)C(Cc3ccc(O)cc31)C2(C)C (single isomer, unassigned; (+)) [(+)Bremazocine]
- Ki (delta receptors [2]; read-out: Ki δ [^3H]Cl-DPDPE): 0.7 nM
- Ki (kappa3 receptors): 0.1 nM
- IC50 (κ2 sites): 11.2 nM
- Ki (mu opioid receptors): 0.1 nM

Molecule: CCC12CCN(CC3CC3)C(C(=O)c3ccc(O)cc31)C2C (single isomer, unassigned; (+)) [(+)EKC-sulfonate]
- Ki (delta receptors [2]; read-out: Ki δ, experiment done with [^3H]DPDPE): 2.6 nM
- Ki (kappa3 receptors): 5.3 nM
- IC50 (κ2 sites): 133 nM
- Ki (mu opioid receptors): 1.1 nM

Molecule: CCC12CCN(CC3(O)CC3)C(Cc3ccc(O)cc31)C2(C)C (single isomer, unassigned; (-)) [(−)Bremazocine]
- IC50 [1, 6]: 0.067 nM
- Ki (delta receptors [2]; read-out: Ki δ [^3H]Cl-DPDPE): 0.3 nM
- Ki (kappa3 receptors): 0.1 nM
- IC50 (κ2 sites): 2.2 nM
- Ki (mu opioid receptors): 0.1 nM
- DR with CTAP (mu receptors): 0.83

Molecule: CC(C)C[C@@H](NC(=O)[C@H](Cc1ccccc1)NC(=O)CNC(=O)[C@@H](C)NC(=O)[C@@H](N)Cc1ccc(O)cc1)C(=O)O [DADLE-OH]
- IC50 [1, 5]: 13.4 nM
- Ki (delta receptors [2]): 0.3 nM
- Ki (kappa3 receptors): 692 nM
- IC50 (κ2 sites): > 10000 nM
- Guinea Pig Ileum DR with CTAP (mu receptors): 4.33
- Guinea Pig Ileum Ke of CTAP (mu receptors): 30.58
- Guinea Pig Ileum DR with Nor-BNI (kappa receptors): 1.53
- Guinea Pig Ileum Ke of Nor-BNI (kappa receptors): 38.13
- IC50 [3, 7]: 1.6 nM

Molecule: C[C@@H](NC(=O)[C@@H](N)Cc1ccc(O)cc1)C(=O)NCC(=O)N(C)[C@@H](Cc1ccccc1)C(=O)NCCO [DAMGO, [D-Ala^2,N-Me-Phe^4,Gly-ol^5]-enkephalin]
- IC50 [1, 5]: 8.25 nM
- Mouse Vas Deferens DR with Naltrindole (delta receptors [4]): 0.93
- Guinea Pig Ileum DR with CTAP (mu receptors): 4.98
- Guinea Pig Ileum Ke of CTAP (mu receptors): 25.31
- Guinea Pig Ileum Ratio (CTAP) (mu receptors): 1.000
- Guinea Pig Ileum DR with Nor-BNI (kappa receptors): 1.74
- Guinea Pig Ileum Ke of Nor-BNI (kappa receptors): 27.67
- Guinea Pig Ileum Ratio (Nor-BNI) (kappa receptors): 0.002
- IC50 [3, 7]: 178 nM

Molecule: CC1(C)SSC(C)(C)[C@@H](NC(=O)[C@@H](N)Cc2ccc(O)cc2)C(=O)NCC(=O)N[C@@H](Cc2ccc(Cl)cc2)C(=O)N[C@H]1C(=O)O [DPDPE-Cl]
- Ki (delta receptors [2]; read-out: Ki δ [^3H]Cl-DPDPE): 0.3 nM
- Ki (kappa3 receptors): 1030 nM
- IC50 (κ2 sites): > 10000 nM

Molecule: CN1CC[C@]23c4c5ccc(O)c4O[C@H]2[C@@H](O)CC[C@H]3[C@H]1C5 [Dihydromorphine, 7,8-Dihydromorphine]
- IC50 [1, 8]: 42.4 nM
- Guinea Pig Ileum DR with CTAP (mu receptors): 12.46
- Guinea Pig Ileum Ke of CTAP (mu receptors): 17.46
- IC50 [3, 9]: 8.11 nM

Molecule: CN1CC[C@]23c4c5ccc(OS(=O)(=O)O)c4O[C@H]2[C@@H](O)C=C[C@H]3[C@H]1C5 [NIDA # 20,268, morphine-3-O-sulfate]
- Ki (delta receptors [2]): > 10000 nM
- Ki (kappa3 receptors): 1690 nM
- IC50 (κ2 sites): > 10000 nM

Molecule: C[N+]1(C)CC[C@]23c4c5ccc(OC(=O)c6ccccc6)c4O[C@H]2[C@@H](OS(=O)(=O)[O-])C=C[C@H]3[C@H]1C5 [NIDA # 20,274, 3-O-Benzoyl-N-methylmorphinium-6-O-sulfate]
- inhibition at 100 µM ([1]; Cavia porcellus, read-out: Guinea pig ileum maximum inhibition): 38%
- Ki (delta receptors [2]): > 10000 nM
- Ki (kappa3 receptors): > 10000 nM
- IC50 (κ2 sites): > 10000 nM

Molecule: C=CCN1CC[C@]23c4c5ccc(O)c4O[C@H]2[C@@H](O)C=C[C@H]3[C@H]1C5 [Nalorphine]
- IC50 [1, 8]: 29.2 nM
- Guinea Pig Ileum DR with CTAP (mu receptors): 0.90
- Guinea Pig Ileum DR with Nor-BNI (kappa receptors): 643.9
- Guinea Pig Ileum Ke of Nor-BNI (kappa receptors): 0.03

Molecule: O=C1CC[C@@]2(O)[C@H]3Cc4ccc(O)c5c4[C@@]2(CCN3CC2CC2)[C@H]1O5 [Naltrexone-HCl]
- Ki (kappa3 receptors): 3.8 nM
- IC50 (κ2 sites): 230 nM

Molecule: Oc1ccc2c3c1O[C@H]1[C@@H](O)C=C[C@H]4[C@@H](C2)NCC[C@@]341 [Normorphine]
- IC50 [1, 8]: 47.3 nM
- Mouse Vas Deferens DR with Naltrindole (delta receptors [4]): 1.06
- Mouse Vas Deferens Ke of Naltrindole (delta receptors [4]): 8.38 ± 0
- Mouse Vas Deferens Ratio (Naltrindole) (delta receptors [4]): 0.0025
- Guinea Pig Ileum DR with CTAP (mu receptors): 3.02
- Guinea Pig Ileum Ke of CTAP (mu receptors): 50.25
- Guinea Pig Ileum Ratio (CTAP) (mu receptors): 0.500
- Guinea Pig Ileum DR with Nor-BNI (kappa receptors): 1.90
- Guinea Pig Ileum Ke of Nor-BNI (kappa receptors): 26.47
- Guinea Pig Ileum Ratio (Nor-BNI) (kappa receptors): 0.002
- IC50 [3, 9]: 512 nM

Molecule: COc1ccc2c3c1O[C@H]1C(=O)CC[C@@]4(O)[C@@H](C2)N(C)CC[C@]314 [Oxycodone]
- IC50 [1, 8]: 324 nM
- Mouse Vas Deferens DR with Naltrindole (delta receptors [4]): 0.79
- Guinea Pig Ileum DR with CTAP (mu receptors): 2.30
- Guinea Pig Ileum Ke of CTAP (mu receptors): 78.66
- Guinea Pig Ileum Ratio (CTAP) (mu receptors): 0.322
- Guinea Pig Ileum DR with Nor-BNI (kappa receptors): 1.45
- Guinea Pig Ileum Ke of Nor-BNI (kappa receptors): 45.84
- Guinea Pig Ileum Ratio (Nor-BNI) (kappa receptors): 0.001
- IC50 [3, 9]: 6330 nM

Molecule: COC(=O)/C=C/C(=O)N[C@@H]1CC[C@@]2(O)[C@H]3Cc4ccc(O)c5c4[C@@]2(CCN3CC2CC2)[C@H]1O5 [β-FNA-HCl]
- Ki (kappa3 receptors): 0.8 nM
- IC50 (κ2 sites): 66.5 nM
- Ki (mu opioid receptors): 0.4 nM

Molecule: (−) Cyclazocine
- IC50 [1, 5]: 1.05 nM
- Ki (kappa3 receptors): 0.2 nM
- IC50 (κ2 sites): 17.3 nM
- Ki (mu opioid receptors): 0.1 nM
- Guinea Pig Ileum DR with CTAP (mu receptors): 1.00 ± 0.00

Molecule: Dynorphin (1-13)-NH2
- Ki (kappa3 receptors): 4.1 nM
- IC50 (κ2 sites): 24.6 nM

Molecule: Dynorphin (1-13)-OH
- Ki (kappa3 receptors): 15.4 nM
- IC50 (κ2 sites): 180 nM

Molecule: Dynorphin (1-17)-OH
- Ki (kappa3 receptors): 5.1 nM
- IC50 (κ2 sites): 29.5 nM

Molecule: Dynorphin A (1-17)
- IC50 [1, 6]: 0.95 nM
- DR with CTAP (mu receptors): 1.52
- Ke of CTAP (mu receptors): 209.89
- IC50 [3, 10]: 29.3 nM

Molecule: Dynorphin B
- IC50 [1, 6]: 4.4 nM
- DR with CTAP (mu receptors): 1.08
- Ke of CTAP (mu receptors): 344.83
- IC50 [3, 10]: 39.1 nM

Molecule: Dynorphin B-OH
- Ki (kappa3 receptors): 14.2 nM
- IC50 (κ2 sites): 70 nM

Molecule: Dynorphin(1-9)-OH
- IC50 [1, 5]: 4.69 nM
- Mouse Vas Deferens DR with Naltrindole (delta receptors [4]): 5.71
- Mouse Vas Deferens Ke of Naltrindole (delta receptors [4]): 0.281
- Ki (kappa3 receptors): 20.2 nM
- IC50 (κ2 sites): 324 nM
- Guinea Pig Ileum DR with CTAP (mu receptors): 1.13
- Guinea Pig Ileum Ke of CTAP (mu receptors): 357.14
- IC50 [3, 7]: 12.2 nM

Molecule: Met-Enkephalin
- IC50 [1, 5]: 27.4 nM
- Mouse Vas Deferens DR with Naltrindole (delta receptors [4]): 13.63
- Mouse Vas Deferens Ke of Naltrindole (delta receptors [4]): 0.082
- Ki (kappa3 receptors): 277 nM
- IC50 (κ2 sites): > 10000 nM
- Guinea Pig Ileum DR with CTAP (mu receptors): 5.08±
- Guinea Pig Ileum Ke of CTAP (mu receptors): 24.50
- IC50 [3, 7]: 1.52 nM

Molecule: [D-Pen^3.5-enkephalin] [DPDPE-OH]
- IC50 [1, 5]: 4130 nM
- Mouse Vas Deferens DR with Naltrindole (delta receptors [4]): 53.11
- Mouse Vas Deferens Ke of Naltrindole (delta receptors [4]): 0.021
- Mouse Vas Deferens Ratio (Naltrindole) (delta receptors [4]): 1.000
- Ki (kappa3 receptors): > 1000 nM
- IC50 (κ2 sites): > 10000 nM
- Guinea Pig Ileum DR with CTAP (mu receptors): 5.64
- Guinea Pig Ileum Ke of CTAP (mu receptors): 25.83
- Guinea Pig Ileum Ratio (CTAP) (mu receptors): 0.980
- Guinea Pig Ileum DR with Nor-BNI (kappa receptors): 1.54
- Guinea Pig Ileum Ke of Nor-BNI (kappa receptors): 50.68
- Guinea Pig Ileum Ratio (Nor-BNI) (kappa receptors): 0.001
